Experimental data reported in patent publication US12358921B2, “Antiviral heterocyclic compounds” (priority 2022, dated 2025).

Assays:
Type in all cases: cell-based
[1] = system: HUMAN RSV-A (“LONG” STRAIN); assay: RSV-A assay (CPE, ATPlite) in Hep-2 cells; details: human respiratory syncytial virus, 120 h, MOI 0.1, 5-day incubation
Method in brief: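 Protection from RSV cytopathic effect read by ATP luminescence (ATPlite) after 5-day culture. Genotype A "Long" virus added at MOI 0.1 to Hep-2 monolayers at 8,000 cells/well, pre-dosed with duplicate 2-fold compound dilutions; controls include infected untreated and uninfected wells. EC50 values binned into ranges.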

hMPV A2 TN/94-49 [2] = assay: HMPV antiviral assay Method 1 (LLC-MK2 cells, ATP-Lite); details: hMPV A2 TN/94-49, LLC-MK2 cells
Description: In vitro HMPV antiviral activity was evaluated using the clinical isolate A2 strain TN 94-49 (obtained from Dr. John Williams, Vanderbilt University, Tennessee) and […] cells (ATCC #CCL-7), an immortalized kidney epithelial cell line from Macaca mulatta. Compounds were resuspended in dimethyl sulfoxide (DMSO) at 10 mM, serially diluted and added to a 384-well source plate. Subsequently, the compounds were diluted and transferred onto 384-well assay plates using the Echo-650 automated liquid handling system (Beckman Coulter, Indiana). The test compounds were assessed in duplicate at a top concentration of 2 μM followed by 2.5-fold serial dilutions to give a total of 10 concentration points. DMSO control wells were also included on the assay plates and were either infected or not, acting as positive and negative controls. A2 TN 94-49 virus infections were performed in-suspension with LLC-MK2 cells. The cells were washed twice with PBS and removed from the cell-culture flask with 0.25% trypsin-EDTA (Thermo Fisher Scientific, MA). The trypsin-EDTA was inactivated by resuspending in 2% fetal bovine serum (FBS) and OptiMEM (ThermoFisher Scientific, MA) containing 1% penicillin-streptomycin. Cells were pelleted by centrifuging for 5 minutes at 800 rpm, the supernatant was removed, and cells were re-suspended and washed in PBS plus 100 μg/mL CaCl2). This step was performed twice. Cells were then re-suspended in serum-free (SF)-OptiMEM containing 4 μg/mL TPCK-Trypsin (Sigma Aldrich, MO), 1% penicillin-streptomycin (ThermoFisher Scientific, MA) and 100 μg/mL CaCl2). Cells were counted and seeded at a density of 5,000 cells/well, 12.5 μL/well. Virus infections were done at a multiplicity of infection (MOI) of 0.005 with 12.5 μL added per well. Virus infections were performed in infection media which contained SF-OptiMEM, 100 μg/mL CaCl2) and 1% penicillin-streptomycin. HMPV viral stocks are suspended in infection media+5% glycerol, thus an equal volume of infection media+5% glycerol was added to uninfected wells to equalize the final % glycerol across all wells of the assay plate. The final concentration of TPCK-trypsin was 2 μg/mL. The assay plates were incubated at 37° C., 5% CO2 for 7 days. After 7 days incubation, 12.5 μL of ATP-Lite (PerkinElmer, MA) was added to each well and the raw luminescence values were determined using the Envision 2104 (Perkin Elmer, MA). The average of the raw luminescence values for the cells and virus only positive control wells was subtracted from all conditions tested and the percent cell health was determined by dividing these values by the average of the cells only negative control wells. EC50 values were then calculated by non-linear regression using a four-parameter curve logistic equation. The curve fit model employed was XLFit Dose Response One Site Model 200: y=(A+(B/(1+((x/C)^D)))), where A is the minimum y value, B is the maximum y value, C is the log EC50value, and D is the slope factor. Method 2: In Vitro HMPV Antiviral Activity was Evaluated Using the Clinical Isolate A2 Strain TN 94-49

hMPV A2 TN/94-49 [3] = assay: HMPV antiviral assay Method 2 (LLC-MK2 cells with CP-100-356, ATP-Lite); details: hMPV A2 TN/94-49, LLC-MK2 cells, 4 μM CP-100-356, Method 2
Method in brief: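 The protective effect was measured after 7 days at 37 °C by ATP-Lite luminescence and expressed as % cell health relative to virus-only and cells-only wells, with EC50 from a four-parameter logistic. Cells were LLC-MK2 infected with strain A2 TN/94-49 (MOI 0.16) with final 2 μM CP-100-356 and 2 μg/mL TPCK-trypsin; 10 duplicate concentrations from 200 nM, 2.5-fold steps.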

SMILES	EC50 [1]	EC50 (hMPV A2 TN/94-49 [2])	EC50 (hMPV A2 TN/94-49 [3])
COc1cc(C(=O)NC[C@](O)(c2cc3c(c(-c4cc(C)cc(F)c4F)n2)OC[C@]3(C)C(N)=O)C2CC2)cc2cn(C3CC3)nc12 [Example 49]	< 200 nM	> 500 nM	
COc1cc(C(=O)NC[C@@](O)(c2ccc(F)cc2)c2cc3c(c(-c4cc(Cl)c(F)cc4F)n2)OC[C@]3(C)C(N)=O)cc2cc(C3CC3)nn12 [Example 15]	< 200 nM	< 500 nM	
COc1cc(C(=O)NC[C@@](O)(c2cc3c(c(-c4ccc(F)cc4O)n2)OC[C@]3(C)C(N)=O)C2CC2)cc2cn(C3CC3)nc12 [Example 64]	< 200 nM	> 500 nM	
COc1cc(C(=O)NC[C@](O)(c2cc3c(c(-c4ccc(F)cc4O)n2)OC[C@]3(C)C(N)=O)C2CC2)cc2cn(C3CC3)nc12 [Example 63]	< 200 nM	> 500 nM	
[2H]C([2H])([2H])c1nc2c(OC)cc(C(=O)NC[C@](O)(c3cc4c(c(-c5cc(F)c(F)cc5F)n3)OC[C@]4(C)C(N)=O)C3CC3)cc2cc1Br [Example 7]	< 200 nM	< 500 nM	
COc1cc(C(=O)NC[C@](O)(c2cc3c(c(-c4cc(Cl)cc(Cl)c4Cl)n2)OC[C@]3(C)C(N)=O)C2CC2)cc2cn(C3CC3)nc12 [Example 61]	< 200 nM	< 500 nM	
COc1cc(F)ccc1-c1nc([C@@](O)(CNC(=O)c2cc(OC)c3nn(C4CC4)cc3c2)C2CC2)cc2c1OC[C@]2(C)C(N)=O [Example 67]	< 200 nM	> 500 nM	
COc1cc(C(=O)NC[C@](O)(c2cc3c(c(-c4cccc(S(F)(F)(F)(F)F)c4)n2)OC[C@]3(C)C(N)=O)C(F)(F)F)cc2cn(C3CC3)nc12 [Example 54]	< 200 nM	> 500 nM	
[2H]C([2H])([2H])c1nc2c(OC(F)F)cc(C(=O)NC[C@](O)(c3cc4c(c(-c5cc(Cl)c(F)cc5F)n3)OC[C@]4(C)C(N)=O)C3CC3)cc2cc1Br [Example 11]	< 200 nM	> 500 nM	
COc1cc(C(=O)NC[C@@](O)(c2ccccc2)c2cc3c(c(-c4cc(Cl)c(F)cc4F)n2)OC[C@]3(C)C(N)=O)cc2cc(C)cnc12 [Example 80]	< 200 nM	< 500 nM	
[2H]c1nc2c(OC)cc(C(=O)NC[C@](O)(c3cc4c(c(-c5cc(F)c(F)cc5F)n3)OC[C@]4(C)C(N)=O)C3CC3)cc2cc1Br [Example 30]	< 200 nM	< 500 nM	
[2H]C([2H])([2H])c1nc2c(OC)cc(C(=O)NC[C@@](O)(c3ccc(F)cc3)c3cc4c(c(-c5ccc6c(c5Cl)OC(F)(F)O6)n3)OC[C@]4(C)C(N)=O)cc2s1 [Example 27]	< 200 nM	< 500 nM	
C[C@]1(C(N)=O)COc2c1cc([C@@](O)(CNC(=O)c1ccc3nc(C(F)(F)F)oc3c1)c1ccccc1)nc2-c1cc(Cl)c(F)cc1F [Example 82]		> 500 nM	
COc1cc(C(=O)NC[C@@](O)(c2ccccc2)c2cc3c(c(-c4cc(Cl)c(F)cc4F)n2)OC[C@]3(C)C(N)=O)cc2ccc(C)nc12 [Example 79]		< 500 nM	
COc1cc(C(=O)NC[C@@](O)(c2ccccc2)c2cc3c(c(-c4cc(Cl)c(F)cc4F)n2)OC[C@]3(C)C(N)=O)cc2cc(C(F)(F)F)cnc12 [Example 83]		< 500 nM	

Now from value to molecule:

EC50 [1]	EC50 (hMPV A2 TN/94-49 [2])	EC50 (hMPV A2 TN/94-49 [3])	SMILES
< 200 nM	> 500 nM		COc1cc(C(=O)NC[C@](O)(c2cc3c(c(-c4cc(Cl)c(F)cc4F)n2)OC[C@]3(C)C(N)=O)c2cnn[nH]2)cc2cn(C3CC3)nc12 [Example 180]
< 200 nM	< 500 nM		COc1cc(C(=O)NC[C@@](O)(c2ccccc2)c2cc3c(c(-c4ccc5c(c4Cl)OC(F)(F)O5)n2)OC[C@]3(C)C(N)=O)cc2cn(C3(F)CC3)nc12 [Example 255]
< 200 nM	< 500 nM		COc1cc(C(=O)NC[C@](O)(c2cc3c(c(-c4cc(Cl)c(F)cc4F)n2)OC[C@]3(C)C(N)=O)c2ccccc2F)cc2cn(C3CC3)nc12 [Example 136]
< 200 nM	< 500 nM		COc1cc(C(=O)NC[C@@](O)(c2ccccc2)c2cc3c(c(-c4cc(Cl)c(F)cc4F)n2)OC[C@]3(C)C(N)=O)cc2cc(Cl)c(C)nc12 [Example 159]
< 200 nM	< 500 nM		COc1ccc([C@](O)(CNC(=O)c2cc(OC)c3nn(C(F)F)cc3c2)c2cc3c(c(-c4cc(Cl)c(F)cc4F)n2)OC[C@]3(C)C(N)=O)cc1 [Example 167]
< 200 nM	< 500 nM		Cc1nc2ccc(C(=O)NC[C@@](O)(c3cccc(F)c3)c3cc4c(c(-c5ccc6c(c5Cl)OC(F)(F)O6)n3)OC[C@]4(C)C(N)=O)cc2o1 [Example 284]
< 200 nM	< 500 nM		COc1cc(C(=O)NC[C@@](O)(c2ccccc2)c2cc3c(c(-c4cc(C(F)(F)F)ccc4F)n2)OC[C@]3(C)C(N)=O)cc2cn(C(F)F)nc12 [Example 148]
< 200 nM	< 500 nM		COc1cc(C(=O)NC[C@@](O)(c2ccccc2)c2cc3c(c(-c4ccc5c(c4Cl)OC(F)(F)O5)n2)OC[C@]3(C)C(N)=O)cc2cc(C3CC3)nn12 [Example 254]
< 200 nM	< 500 nM		Cc1nc2ccc(C(=O)NC[C@@](O)(c3ccccc3)c3cc4c(c(-c5cc(Cl)c(F)cc5F)n3)OC[C@]4(C)C(N)=O)cc2o1 [Example 86]
< 200 nM	< 500 nM		CNC(=O)[C@@]1(C)COc2c1cc([C@@](O)(CNC(=O)c1cc(OC)c3nn(C4CC4)cc3c1)c1ccccc1)nc2-c1cc(Cl)c(F)cc1F [Example 141]
< 200 nM	< 500 nM		COc1cc(C(=O)NC[C@@](O)(c2ccccc2)c2cc3c(c(-c4ccc5c(c4Cl)OC(F)(F)O5)n2)OC[C@]3(C)C(N)=O)cc2cn(C(F)F)nc12 [Example 253]
< 200 nM	> 500 nM		COc1cc(C(=O)NCC(O)(c2cc3c(c(-c4cc(Cl)c(F)cc4F)n2)OC[C@]3(C)C(N)=O)c2cc3ccccc3s2)cc2cn(C3CC3)nc12 (some centres unmarked) [Example 469]
< 200 nM	< 500 nM		COc1cc(C(=O)NC[C@@](O)(c2ccsc2)c2cc3c(c(-c4cc(Cl)c(F)cc4F)n2)OC[C@]3(C)C(N)=O)cc2cn(C(F)F)nc12 [Example 174]
	< 500 nM		COc1cc(C(=O)NC[C@@](O)(c2ccccc2)c2cc3c(c(-c4cc(Cl)c(F)cc4F)n2)OC[C@]3(C)C(N)=O)cc2oc(C)nc12 [Example 84]
< 200 nM	< 500 nM		COc1cccc([C@](O)(CNC(=O)c2cc(OC)c3nc(C)c(Cl)cc3c2)c2cc3c(c(-c4cc(Cl)c(F)cc4F)n2)OC[C@]3(C)C(N)=O)c1 [Example 164]
> 200 nM	> 500 nM		COc1cc(C(=O)NC[C@@](O)(c2cc3c(c(-c4cc(Cl)c(F)cc4F)n2)OC[C@]3(C)C(N)=O)c2cnn[nH]2)cc2cn(C3CC3)nc12 [Example 181]
	> 500 nM		COc1cc(C(=O)NC[C@@](O)(c2cc3c(c(-c4cc(Cl)c(F)cc4F)n2)OC[C@]3(C)C(N)=O)c2cc(C)cs2)cc2cn(C3CC3)nc12 [Example 466]
< 200 nM		< 200 nM	COc1cc(C(=O)NC[C@@](O)(c2cccc(S(C)(=O)=O)c2)c2cc3c(c(-c4cc(Cl)c(F)cc4F)n2)OC[C@]3(C)C(N)=O)cc2cn(C3CC3)nc12 [Example 483]
< 200 nM		< 200 nM	COc1cc(C(=O)NC[C@@](O)(c2ccccc2)c2cc3c(c(-c4cc(C(F)(F)F)c(F)cc4F)n2)OC[C@]3(C)C(N)=O)cc2cn(C(F)F)nc12 [Example 304]
< 200 nM		< 200 nM	COc1cc(C(=O)NC[C@@](O)(c2cccc(F)n2)c2cc3c(c(-c4cc(Cl)c(F)cc4F)n2)OC[C@]3(C)C(N)=O)cc2cc(C3CC3)nn12 [Example 206]
